From patent US20150284394A1, “INHIBITORS OF BRUTON'S TYROSINE KINASE” (HOFFMANN-LA ROCHE INC., priority 2012, published 2015)

Legend:
Bruton's Tyrosine Kinase = Bruton's Tyrosine Kinase (Homo sapiens, UniProt Q06187); assay: Bruton's Tyrosine Kinase (BTK) Inhibition TR-FRET competition assay; type: binding; conditions: inactivated state of BTK; Kinase Tracer 178; 18-24 h at 14° C
Protocol: This BTK competition assay measures compound potency (IC50) for the inactivated state of Bruton's Tyrosine Kinase using FRET (Forster/Fluorescence Resonance Energy Transfer) technology. The BTK-Eu complex was incubated on ice one hour prior to use at a starting concentration of 50 nM BTK-Bioease™: 10 nM Eu-streptavidin (Perkin-Elmer Catalog# AD0062). The assay buffer consisted of 20 mM HEPES (pH 7.15), 0.1 mM DTT, 10 mM MgCl2, 0.5 mg/ml BSA with 3% Kinase Stabilizer (Fremont Biosolutions, Catalog # STB-K02). After 1 h, the reaction mixture from above was diluted 10 fold in assay buffer to make 5 nM BTK: 1 nM Eu-Streptavidin complex (donor fluorophore). […] of a mixture of 0.11 nM BTK-Eu and 0.11 nM Kinase Tracer 178 (Invitrogen, Catalog # PV5593,) with BTK-Eu alone as no negative control, was then dispensed into 384-well flat bottom plates (Greiner, 784076). Compounds to be tested in assay were prepared as 10× concentrations and serial dilution in half-log increments was performed in DMSO so as to generate 10 point curves. To initiate the FRET reaction, compounds prepared as 10× stock in DMSO was added to the plates and the plates were incubated 18-24 h at 14° C.
After the incubation the plates were read on a BMG Pherastar Fluorescent plate reader (or equivalent) and used to measure the emission energy from the europium donor fluorophore (620 nm emission) and the FRET (665 nm emission). The negative control well values were averaged to obtain the mean minimum. The positive “no inhibitor” control wells were averaged to obtain the mean maximum. Percent of maximal FRET was calculated using following equation:
% max FRET=100×[(FSRcmpd−FSRmean min)/(FSRmean max−FSRmean min)]
where FSR=FRET Signal ratio. % Max FRET curves were plotted in Activity Base (Excel) and the IC50(%), hill slope, z′ and % CV were determined. The mean IC50 and standard deviation will be derived from duplicate curves (singlet inhibition curves from two independent dilutions) using Microsoft Excel.

B cells in human blood = assay: Inhibition of B cell activation in whole blood measured by CD69 expression; type: cell-based; conditions: anti-IgM stimulation, 20 hours, CD69-positive cells that are also CD20-positive, read-out: HWB IC50
Protocol: A procedure to test the ability of Btk inhibitors to suppress B cell receptor-mediated activation of B cells in human blood is as follows:
Human whole blood (HWB) is obtained from healthy volunteers, with the following restrictions: 24 hr drug-free, non-smokers. Blood is collected by venipuncture into Vacutainer tubes anticoagulated with sodium heparin. Test compounds are diluted to ten times the desired starting drug concentration in PBS (20×), followed by three-fold serial dilutions in 10% DMSO in PBS to produce a nine point dose-response curve. 5.5 μl of each compound dilution is added in duplicate to a 2 ml 96-well V bottom plate (Analytical Sales and Services, #59623-23); 5.5 μl of 10% DMSO in PBS is added to control and no-stimulus wells. HWB (100 μl) is added to each well, and after mixing the plates are incubated at 37 C, 5% CO2, 100% humidity for 30 minutes. Goat F(ab′)2 anti-human IgM (Southern Biotech, #2022-14) (10 μl of a 500 μg/ml solution, 50 μg/ml final concentration) is added to each well (except the no-stimulus wells) with mixing and the plates are incubated for an additional 20 hours.
At the end of the 20 hour incubation, samples are incubated with florescent-probe-labeled anti-bodies (15 μl PE Mouse anti-Human CD20, BD Pharmingen, #555623, and/or 20 ul APC Mouse anti-Human CD69, BD Pharmingen #555533) for 30 minutes, at 37 C, 5% CO2, 100% humidity. Included are induced control, unstained and single stains for compensation adjustments and initial voltage settings. Samples are then lysed with 1 ml of 1× Pharmingen Lyse Buffer (BD Pharmingen #555899), and plates are centrifuged at 1800 rpm for 5 minutes. Supernatants are removed via suction and the remaining pellets are lysed again with another 1 ml of 1× Pharmingen Lyse Buffer, and plates are spun down as before. Supernatants are aspirated and remaining pellets are washed in FACs buffer (PBS+1% FBS). After a final spin, the supernantants are removed and pellets are resuspended in 180 μl of FACs buffer. Samples are transferred to a 96 well plate suitable to be run on the HTS 96 well system on the BD LSR II flow cytometer.
Using appropriate excitation and emission wavelengths for the fluorophores used, data are acquired and percent positive cell values are obtained using Cell Quest Software. Results are initially analyzed by FACS analysis software (Flow Jo). […] The IC50 values are calculated using XLfit software version 3, equation 201.

Sequence of Bruton's Tyrosine Kinase (Q06187 whole entry): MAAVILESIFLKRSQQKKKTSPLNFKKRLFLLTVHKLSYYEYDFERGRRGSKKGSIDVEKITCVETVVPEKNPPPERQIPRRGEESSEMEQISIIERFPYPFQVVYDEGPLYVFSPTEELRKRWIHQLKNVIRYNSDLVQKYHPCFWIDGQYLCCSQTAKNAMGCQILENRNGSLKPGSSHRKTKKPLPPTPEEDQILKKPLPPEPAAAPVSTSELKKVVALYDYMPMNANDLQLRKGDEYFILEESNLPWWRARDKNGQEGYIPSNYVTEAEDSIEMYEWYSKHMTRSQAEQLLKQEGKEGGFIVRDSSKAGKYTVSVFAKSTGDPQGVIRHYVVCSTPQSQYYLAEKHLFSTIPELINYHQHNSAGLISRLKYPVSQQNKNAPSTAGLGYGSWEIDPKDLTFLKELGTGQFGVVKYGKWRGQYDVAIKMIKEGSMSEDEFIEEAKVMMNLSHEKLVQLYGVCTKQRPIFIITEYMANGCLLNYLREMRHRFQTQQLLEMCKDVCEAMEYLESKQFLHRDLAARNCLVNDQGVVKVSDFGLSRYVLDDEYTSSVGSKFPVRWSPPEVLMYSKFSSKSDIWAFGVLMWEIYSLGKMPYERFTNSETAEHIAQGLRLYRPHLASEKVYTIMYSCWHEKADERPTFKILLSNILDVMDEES

| IC50 (Bruton's Tyrosine Kinase) | IC50 (B cells in human blood) | SMILES |
| --- | --- | --- |
| 20 nM | 6050 nM | CN(Cc1ccc(-c2ncnc3[nH]c(-c4cnn(C)c4)cc23)cc1F)C(=O)c1ccc(C(C)(C)C)cc1 [Compound I-31, 4-tert-Butyl-N-{2-fluoro-4-[6-(1-methyl-1H-pyrazol-4-yl)-7H-pyrrolo[2,3-d]pyrimidin-4-yl]-benzyl}-N-methyl-benzamide] |
| 8 nM | – | Cc1ccc(C(=O)N(C)Cc2ccc(-c3ncnc4[nH]c(-c5cnn(C)c5)cc34)cc2F)s1 [Compound I-32, 5-Methyl-thiophene-2-carboxylic acid {2-fluoro-4-[6-(1-methyl-1H-pyrazol-4-yl)-7H-pyrrolo[2,3-d]pyrimidin-4-yl]-benzyl}-methyl-amide] |
| 1 nM | 129 nM | Cn1cc(-c2cc3c(-c4ccc(CN5Cc6cc(C(C)(C)C)sc6C5=O)c(F)c4)ncnc3[nH]2)cn1 [Compound I-33, 2-tert-Butyl-5-{2-fluoro-4-[6-(1-methyl-1H-pyrazol-4-yl)-7H-pyrrolo[2,3-d]pyrimidin-4-yl]-benzyl}-4,5-dihydro-thieno[2,3-c]pyrrol-6-one] |
| 0.2 nM | 76 nM | Cn1cc(-c2cc3c(-c4ccc(CNC(=O)c5cc(C(C)(C)C)on5)c(F)c4)ncnc3[nH]2)cn1 [Compound I-34, 5-tert-Butyl-isoxazole-3-carboxylic acid 2-fluoro-4-[6-(1-methyl-1H-pyrazol-4-yl)-7H-pyrrolo[2,3-d]pyrimidin-4-yl]-benzylamide] |
| 0.19 nM | – | Cn1cc(-c2cc3c(-c4ccc(CNC(=O)c5cc(C(C)(C)C)on5)c(F)c4)ncnc3[nH]2)cn1 [Compound I-48, 5-tert-Butyl-isoxazole-3-carboxylicacid 2-fluoro-4-[6-(1-methyl-1H-pyrazol-4-yl)-7H-pyrrolo[2,3-d]pyrimidin-4-yl]-benzylamide] |
| 1490 nM | – | Cn1cc(-c2cc3c(-c4ccc(CNC(=O)OC(C)(C)C)c(F)c4)ncnc3[nH]2)cn1 [Compound I-50, {2-Fluoro-4-[6-(1-methyl-1H-pyrazol-4-yl)-7H-pyrrolo[2,3-d]pyrimidin-4-yl]-benzyl}-carbamic acid tert-butyl ester] |
| 26 nM | – | Cn1cc(-c2cc3c(-c4ccc(CNC(=O)c5ccccc5)c(F)c4)ncnc3[nH]2)cn1 [Compound I-51, N-{2-Fluoro-4-[6-(1-methyl-1H-pyrazol-4-yl)-7H-pyrrolo[2,3-d]pyrimidin-4-yl]-benzyl}-benzamide] |

Continued, molecule first:

| SMILES | IC50 (Bruton's Tyrosine Kinase) | IC50 (B cells in human blood) |
| --- | --- | --- |
| CNC(=O)c1cc2c(-c3ccc(CNC(=O)c4ccc(C(C)(C)C)cc4)c(F)c3)ncnc2[nH]1 [Compound I-17, 4-{4-[(4-tert-Butyl-benzoylamino)-methyl]-3-fluoro-phenyl}-7H-pyrrolo[2,3-d]pyrimidine-6-carboxylic acid methylamide] | 98 nM | 16200 nM |
| CN(C)CCNC(=O)c1cc2c(-c3ccc(CNC(=O)c4ccc(C(C)(C)C)cc4)c(F)c3)ncnc2[nH]1 [Compound I-19, 4-{4-[(4-tert-Butyl-benzoylamino)-methyl]-3-fluoro-phenyl}-7H-pyrrolo[2,3-d]pyrimidine-6-carboxylic acid (2-dimethylamino-ethyl)-amide] | 137 nM | – |
| Cn1cc(-c2cc3c(N4CCC(CNC(=O)c5ccc(C(C)(C)C)cc5)CC4)ncnc3[nH]2)cn1 [Compound I-20, 4-tert-Butyl-N-{1-[6-(1-methyl-1H-pyrazol-4-yl)-7H-pyrrolo[2,3-d]pyrimidin-4-yl]-piperidin-4-ylmethyl}-benzamide] | 62 nM | 3000 nM |
| Cn1cc(-c2cc3c(-c4ccc(CNC(=O)c5ccc(C(C)(C)C)cc5)cc4)ncnc3[nH]2)cn1 [Compound I-21, 4-tert-Butyl-N-{4-[6-(1-methyl-1H-pyrazol-4-yl)-7H-pyrrolo[2,3-d]pyrimidin-4-yl]-benzyl}-benzamide] | 7 nM | 1400 nM |
| Cn1cc(-c2cc3c(-c4ccc(CNC(=O)c5ccc(C6CC6)cc5)cc4)ncnc3[nH]2)cn1 [Compound I-22, 4-Cyclopropyl-N-{4-[6-(1-methyl-1H-pyrazol-4-yl)-7H-pyrrolo[2,3-d]pyrimidin-4-yl]-benzyl}-benzamide] | 8 nM | 5480 nM |
| CC(C)c1ccc(C(=O)NCc2ccc(-c3ncnc4[nH]c(-c5cnn(C)c5)cc34)cc2)cc1 [Compound I-23, 4-Isopropyl-N-{4-[6-(1-methyl-1H-pyrazol-4-yl)-7H-pyrrolo[2,3-d]pyrimidin-4-yl]-benzyl}-benzamide] | 7 nM | 1400 nM |
| Cn1cc(-c2cc3c(-c4ccc(CNC(=O)c5ccc(C6COC6)cc5)cc4)ncnc3[nH]2)cn1 [Compound I-24, N-{4-[6-(1-Methyl-1H-pyrazol-4-yl)-7H-pyrrolo[2,3-d]pyrimidin-4-yl]-benzyl}-4-oxetan-3-yl-benzamide] | 65 nM | – |
| Cn1cc(-c2cc3c(-c4ccc(CNC(=O)c5ccc(C6(C)COC6)cc5)cc4)ncnc3[nH]2)cn1 [Compound I-25, 4-(3-Methyl-oxetan-3-yl)-N-{4-[6-(1-methyl-1H-pyrazol-4-yl)-7H-pyrrolo[2,3-d]pyrimidin-4-yl]-benzyl}-benzamide] | 44 nM | 28900 nM |
| Cn1cc(-c2cc3c(-c4ccc(CNC(=O)c5cc6c(s5)CCCC6)cc4)ncnc3[nH]2)cn1 [Compound I-26, 4,5,6,7-Tetrahydro-benzo[b]thiophene-2-carboxylic acid 4-[6-(1-methyl-1H-pyrazol-4-yl)-7H-pyrrolo[2,3-d]pyrimidin-4-yl]-benzylamide] | 1 nM | 608 nM |
| Cn1cc(-c2cc3c(-c4ccc(CNC(=O)c5ccc(C(C)(C)C)cc5)c(F)c4)ncnc3[nH]2)cn1 [Compound I-27, 4-tert-Butyl-N-{2-fluoro-4-[6-(1-methyl-1H-pyrazol-4-yl)-7H-pyrrolo[2,3-d]pyrimidin-4-yl]-benzyl}-benzamide] | 2 nM | 812 nM |
| Cn1cc(-c2cc3c(-c4ccc(CNC(=O)c5ccc(C(C)(C)C)nc5)c(F)c4)ncnc3[nH]2)cn1 [Compound I-28, 6-tert-Butyl-N-{2-fluoro-4-[6-(1-methyl-1H-pyrazol-4-yl)-7H-pyrrolo[2,3-d]pyrimidin-4-yl]-benzyl}-nicotinamide] | 4 nM | 2540 nM |
| Cc1ccc(C(=O)NCc2ccc(-c3ncnc4[nH]c(-c5cnn(C)c5)cc34)cc2F)s1 [Compound I-29, 5-Methyl-thiophene-2-carboxylic acid 2-fluoro-4-[6-(1-methyl-1H-pyrazol-4-yl)-7H-pyrrolo[2,3-d]pyrimidin-4-yl]-benzylamide] | 3 nM | 470 nM |
| CC(C)(C)c1ccc(C(=O)NCc2ccc(-c3ncnc4[nH]c(-c5cnn(CCO)c5)cc34)cc2F)cc1 [Compound I-30, 4-tert-Butyl-N-(2-fluoro-4-{6-[1-(2-hydroxy-ethyl)-1H-pyrazol-4-yl]-7H-pyrrolo[2,3-d]pyrimidin-4-yl}-benzyl)-benzamide] | 0.7 nM | 1040 nM |
